Results from patent publication US20040063692A1, “Bazedoxifene treatment regimens” (Wyeth, priority 2002, published 2004).

Tests used:
Type in all cases: in vivo, Female Sprague Dawley CD rats
[1] = system: ovariectomized (ovx) rats; test: Bone mineral density (BMD) in ovariectomized rats, daily or once weekly dosing; conditions: measured five weeks after initiation of treatment
Text: (§1) The ability of bazedoxifene to be successfully administered on an extended dosing regimen was established in an in vivo standard pharmacological test procedure which evaluated bone mineral density (BMD), change in body weight, and uterine weight using bazedoxifene acetate as a representative compound of this invention. The following briefly describes the procedure used and results obtained in the standard pharmacological test procedure.
(§2) Female Sprague Dawley CD rats, ovariectomized (ovx) or sham ovx, were obtained 1 day after surgery from Taconic Farm (weight range 240-275 g). They were housed 3 or 4 rats/cage in a room on a 14/10 (light/dark) schedule and provided with food (Purina 500 rat chow) and water ad libitum. Treatment for all studies began 1 day after the animals arrival and dosed either daily or once weekly as indicated for 6 weeks. A group of age matched sham operated rats not receiving any treatment served as an intact, estrogen replete control group for each study. All treatments were prepared in 1% tween 80 in normal saline at defined concentrations so that the treatment volume was 0.1 mL/100 g body weight.
Five weeks after the initiation of treatment and one week prior to the termination of the study, each rat was evaluated for bone mineral density (BMD). The BMD's of the proximal tibiae (PT) and fourth lumbar vertabrae (L4) were measured in anesthetized rats using a dual energy X-ray absorptiometer (Eclipse XR-26, Norland Corp. Ft. Atkins, Wis.). The dual energy X-ray absorptiometer (DXA) measurements for each rat were performed as follows: Fifteen minutes prior to DXA measurements, the rat was anesthetized with an intraperitoneal injection of 100 mg/kg ketamine (Bristol Laboratories, Syracuse, N.Y.) and 0.75 mg/kg acepromazine (Aveco, Ft.Dodge, Iowa). The rat was placed on an acrylic table under the DXA scanner perpendicular to its path; the limbs were extended and secured with paper tape to the surface of the table. A preliminary scan was performed at a scan speed of 50 mm/second with a scan resolution of 1.5 mm×1.5 mm to determine the region of interest in PT and L4. Small subject software was employed at a scan speed of 10 mm/second with resolution of 0.5 mm X 0.5 mm for final BMD measurements. The software allows the operator to define a 1.5 cm wide area to cover the total length of L4. The BMDs for respective sites were computed by the software as a function of the attenuation of the dual beam (46.8 KeV and 80 KeV) X-ray generated by the source underneath the subject and the detector travelling along the defined area above the subject. The data for BMD values (expressed in g/cm2) and individual scans were stored for statistical analysis.

[2] = system: ovariectomized (ovx) rats; test: Uterine weight in ovariectomized rats, daily or once weekly dosing; conditions: 6 weeks
Text: as §1, §2
(§3) One week after BMD evaluation the rats were euthanized by carbon dioxide suffocation. The uteri were removed and the weights taken. The following table summarizes the results that were obtained. The sham group was not ovariectomized; all other groups were ovariectomized. In the table below, bazedoxifene acetate is abbreviated as BZA.

[3] = Change in body weight in ovariectomized rats, daily or once weekly dosing; conditions: ovx rats, 6 weeks
Text: as §1, §2, §3

Cc1c(-c2ccc(O)cc2)n(Cc2ccc(OCCN3CCCCCC3)cc2)c2ccc(O)cc12 [BZA, 1-[4-(2-azepan-1-yl-ethoxy)-benzyl]-2-(4-hydroxy-phenyl)-3-methyl-1H-indol-5-ol]
Total BMD, Mean ± SEM ([1]; 0.3 mg/kg 1×/week): 556.56 ± 20.5 mg/mL
Trabecular BMD, Mean ± SEM ([1]; 0.3 mg/kg 1×/week): 361.93 ± 34.5 mg/mL
Total BMD, Mean ± SEM ([1]; 0.3 mg/kg 7×/week): 604.33 ± 18.6 mg/mL
Trabecular BMD, Mean ± SEM ([1]; 0.3 mg/kg 7×/week): 425.90 ± 26.3 mg/mL
Total BMD, Mean ± SEM ([1]; 1.0 mg/kg 1×/week): 562.90 ± 7.7 mg/mL
Trabecular BMD, Mean ± SEM ([1]; 1.0 mg/kg 1×/week): 353.03 ± 15.7 mg/mL
Total BMD, Mean ± SEM ([1]; 3.0 mg/kg 1×/week): 589.36 ± 10.9 mg/mL
Trabecular BMD, Mean ± SEM ([1]; 3.0 mg/kg 1×/week): 427.00 ± 10.0 mg/mL
Uterine Weight, Mean ± SEM ([2]; 0.3 mg/kg 1×/week): 131.3 ± 7.0 mg
Uterine Weight, Mean ± SEM ([2]; 0.3 mg/kg 7×/week): 140.3 ± 6.3 mg
Uterine Weight, Mean ± SEM ([2]; 1.0 mg/kg 1×/week): 149.9 ± 5.0 mg
Uterine Weight, Mean ± SEM ([2]; 3.0 mg/kg 1×/week): 127.3 ± 10.9 mg
Δ Body Weight, Mean ± SEM ([3]; 0.3 mg/kg 1×/week): 80.5 ± 2.0 g
Δ Body Weight, Mean ± SEM ([3]; 0.3 mg/kg 7×/week): 60 ± 5.6 g
Δ Body Weight, Mean ± SEM ([3]; 1.0 mg/kg 1×/week): 71.3 ± 4.8 g
Δ Body Weight, Mean ± SEM ([3]; 3.0 mg/kg 1×/week): 59.3 ± 7.0 g
